This note sets out measurements from patent US9212209B2, “Screening methods for spinal muscular atrophy” (Indiana University Research and Technology Corporation, priority 2012, dated 2015).

Where two headings read alike, the source gives them in different places.

One data set concerns SMN2-luciferase reporter. The experiment in a line: SMN2-luciferase reporter assay (clonal HEK-293 SMN2-luc cells). It counts as cell-based, human. The arrangement: % activation: concentration or dose not given beside the values. (A reporter such as luciferase makes a cellular process visible.)
In another data set the test system is SMN protein. The experiment in a line: SMN protein in tissues of SMA mice after intracerebroventricular injection. The class given is in vivo, mouse. Particulars: ICV daily for 3 days, harvested on day 3, words. The method, then: Pilot experiments with the LDN compounds were initiated in SMA mice. Compounds LDN-75654 and LDN-76070 were tested in SMA mice to evaluate SMN-inducing activity in vivo. The compounds were injected intracerebroventricular (ICV) into SMA mice. Injections were performed daily for 3 days, and animals were harvested on day 3. LDN-76070 increased SMN protein in muscle and liver. […] Without the intention to be limited by theory, it is proposed that this may be due to the instability observed in the liver microsomal stability assay.

The nature of data set [1]: Liver microsome stability. The conditions noted are these: for half-life: mouse, liver microsomes. A general note: Liver microsomes are vesicles of endoplasmic reticulum, rich in cytochrome P450 enzymes.
Data set [2] in a line: Solubility in PBS / aqueous solution. It counts as physicochemical.
For data set [3], the system named is SMN-luciferase fusion protein. The experiment in a line: Immunoblot of SMN-luciferase fusion protein in SMN1-luc cells. The class given is cell-based, human. The conditions noted are these: SMN1-luc cell line, increasing SAHA; words. Here is the method: For analysis of SMN-luciferase fusion, cells were treated with compound or DMSO for 25 hours. Cells were lysed with protein lysis buffer (100 mM Tris pH 8.0, 100 mM NaCl, 0.1% NP-40, 8.0 M urea, and protease inhibitor). Each sample was separated on a 10% SDS-page gel, transferred to Immobilon-P membrane (MILLIPORE IVPH00010) and blotted for the SMN-luciferase fusion with anti-luciferase antibody (PROMEGA, #G7541), SMN with the 4f11 mouse monoclonal antibody (described in Mattis et al., “Detection of human survival motor neuron (SMN) protein in mice containing the SMN2 transgene: Applicability to preclinical therapy development for spinal muscular atrophy” J. Neurosci Methods, 2008), HA-tag with 12CA5 monoclonal, actin (Sigma A2066) or a-tubulin (DM1a; Sigma T6199).
Quantification of protein was performed with FUJIFILM LAS-4000 Multifunctional Imaging System. The signal intensity was measured for each band on an immunoblot, normalized to the loading control, and the fold increase was determined in relation to the appropriate DMSO treated control.

For data set [4], the system named is SMN-luciferase transcripts. In words: qRT-PCR of SMN-luciferase transcripts in SMN2-luc cells. It counts as cell-based, human. Particulars: 24 hours, relative to DMSO, normalized to GAPDH, aclarubicin at 300 nM, words. The method, then:
Compounds were tested at three concentrations that display maximal activity in the luciferase assay. Cells were treated as described above for the luciferase assay. Cells were harvested by trypsinization, neutralized with trypsin inhibitor, and washed. RNA was isolated from the cells using TRIZOL Reagent (Invitrogen 15596-026). cDNA was generated using the IMPROM-II Reverse Transcription System (Promega A3801).
The forward primer pair recognizes the exon 5-6 junction, which includes a restriction site that was engineered into the reporter and will exclude amplification of endogenous SMN mRNA. The reverse primers recognize either exon 7 or luciferase for detection of full-length or total SMN-luciferase transcripts respectively. For a reference control, cDNA from the housekeeping gene glyceraldehyde-3-phosphate dehydrogenase (GAPDH) was amplified. The primers used include SMN exon5-forward ([…]) (SEQ ID NO: 3), luciferase-reverse ([…]) (SEQ ID NO: 4), exon7-reverse ([…]) (SEQ ID NO: 5), GAPDH-reverse (G3A) ([…]) (SEQ ID NO: 6) and GAPDH-forward (G3S) ([…]) (SEQ ID NO: 7). qPCR was performed as described in the protocol for iQ SYBRGREEN SUPERMIX (Biorad 170-8882) using an EPPENDORF Mastercycler ep realplex^4 Thermo Cycler. Reactions were incubated for a 10 minute, 94° C. hot start followed by 45 cycles of the following: 94° C. for 45 second, 60° C. for 15 seconds, 72° C. for 45 seconds. Melting curves for each reaction were obtained. Each sample was assayed in triplicate and every plate contained a 5-point cDNA dilution course to calculate amplification efficiency for each primer pair. The Pfaffl method was used to determine the change in transcript levels relative to the DMSO and normalized to GAPDH (Pfaffl, M. W., “A new mathematical model for relative quantification in real-time RT-PCR,” Nucleic Acids Res 2001, 29(9), 3e45).
Based on the new reporter design, it was predicted that this screen could detect increased SMN-luciferase protein levels caused by compounds that stimulate SMN2 transcription, exon 7 inclusion, or by increasing the half-life of the SMN mRNA or protein. Quantitative reverse transcriptase PCR (qRT-PCR) was used to analyze SMN-luciferase mRNAs. All assays used RNA from control and compound-treated SMN2-luc cells and primers pairs were chosen to amplify only the SMN-luciferase derived transcripts (FIG. 4A). A pair of primers were used that specifically detects both full-length (exon 7 included) and Δ7 (exon 7 excluded) SMN-luciferase transcripts (primers 1 and 3). To measure changes in exon 7 splicing efficiency, a primer pair was used that detects only the full-length (exon 7 included) SMN-luciferase transcript (primers 1 and 2).
For each sample, the percent increase in the amount of total SMN-luciferase transcripts (gray bar) and exon 7 included full-length SMN-luciferase transcripts (white bar) was plotted (FIG. 4). Compounds that increase transcription should show increased total SMN-luciferase transcripts (gray bar) with a proportional increase for exon 7 included transcripts (white bar), assuming that proper splicing of exon 7 is not rate limiting. Compounds that stimulate exon 7 inclusion should increase the amount of exon 7 included full-length transcript (white bar) detected with little to no change in the expression of total SMN-luciferase transcripts (gray bar). In these experiments, cells were treated with compound, harvested, and each cell pellet was divided for isolation of RNA and to assay luciferase activity. Each qRT-PCR sample was normalized to the housekeeping gene glyceraldehyde-3-phosphate dehydrogenase (GAPDH). The Pfaffl method was used to calculate the change in the amount of total SMN mRNA and determine whether compound treatments increased SMN transcripts.
(In qPCR the cycle at which signal appears reflects the starting amount.)

`CC(C)c1cc(C(=O)Nc2ccc(F)c(Cl)c2)no1` [LDN-75654]: the EC50 in the data set on SMN2-luciferase reporter (Homo sapiens, HEK293, Table 7, read-out: EC50) turned out to be 2000 nM; in the data set on SMN2-luciferase reporter (Homo sapiens, HEK293, reporter assay, Table 6, read-out: Ec50), 1800 nM. Moreover, the Emax in the data set on SMN2-luciferase reporter (Homo sapiens, HEK293, reporter assay, Table 6, read-out: Max % Activity) was 274%. Moreover, in the data set on SMN2-luciferase reporter (Table 7), the Maximum % activation came to 242.4 ± 35.1%. Moreover, the “% activation” value in the data set with SMN2-luciferase reporter (reporter assay, Table 5) stood at 106%. Further, in the data set with SMN2-luciferase reporter (reporter assay, Table 6), the Active entry is on record as “Yes”. Besides, in the data set on SMN protein, the “SMN protein levels in these animals” value was “did not increase”. This compound came in with a Stabilityin liver microsomes in data set [1] (Table 8) of 15 min. For the same compound, the Stability in data set [1] (Table 9) is reported as 15 min. The half-life was 15 min in data set [1] (T1/2 in liver microsomes, Table 7) and 14 min in data set [1] (t1/2 in mouse liver microsomes, mouse liver microsomes). Also, the solubility in data set [2] (PBS, aqueous buffer, read-out: Maximal solubility in PBS) was over 2000 µM; in data set [2] (aqueous solution, Table 8, grades, read-out: Solubility in aqueous solution) it was over 2000 µM.

On to `O=C(CCCCCCC(=O)Nc1ccccc1)NO` [SAHA, suberoylanilide hydroxamic acid], for which the “increase in SMN-luciferase protein” value in data set [3] is listed as “moderate increase”. For the same compound, in data set [4], the “exon 7 included full-length SMN-luciferase transcripts” value was “increased” and the “total SMN-luciferase transcripts” value is “increased”.

Usually EC50 stands for the concentration giving half of the maximal effect. The half-life is the time in which the quantity being followed falls by half. Broadly, the solubility is how much of the substance goes into solution per volume.
